# Publication PMC11845477, “Exploring the principles behind antibiotics with limited resistance” (Nature Communications, 2025)
# What was measured:
# [1] = test system: E. coli ATCC 25922 (SEN) and E. coli NCTC13846 (MDR); assay: Adaptive laboratory evolution (ALE), relative MIC of evolved lines; format: cell-based, Escherichia coli; conditions: for Relative MIC: ALE
# How it was run: (§1)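 Ten parallel populations per antibiotic–ancestor pair were evolved in MHB at 37 °C, starting near 50% growth-inhibiting drug. Every 72 h they were passaged into 0.5–2.5× increasing concentrations, keeping the highest-drug well with OD600 > 0.2.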
# [2] = test system: A. baumannii ATCC 17978 (SEN) and A. baumannii ATCC BAA-1605 (MDR); assay: as above; format: cell-based, Acinetobacter baumannii; conditions: for Relative MIC: ALE
# How it was run: as §1
substance,measurement,setting,value
POL7306,Relative MIC,"[1]; Escherichia coli ATCC 25922 (EC-SEN), evolved line 1",2
same,Relative MIC,"[1]; Escherichia coli ATCC 25922 (EC-SEN), evolved line 2",8
same,Relative MIC,"[1]; Escherichia coli ATCC 25922 (EC-SEN), evolved line 3",4
same,Relative MIC,"[1]; Escherichia coli ATCC 25922 (EC-SEN), evolved line 4",4
same,Relative MIC,"[1]; Escherichia coli ATCC 25922 (EC-SEN), evolved line 5",4
same,Relative MIC,"[1]; Escherichia coli ATCC 25922 (EC-SEN), evolved line 6",4
same,Relative MIC,"[1]; Escherichia coli ATCC 25922 (EC-SEN), evolved line 7",4
same,Relative MIC,"[1]; Escherichia coli ATCC 25922 (EC-SEN), evolved line 8",8
same,Relative MIC,"[1]; Escherichia coli ATCC 25922 (EC-SEN), evolved line 9",8
same,Relative MIC,"[1]; Escherichia coli ATCC 25922 (EC-SEN), evolved line 10",4
same,Relative MIC,"[1]; Escherichia coli NCTC 13846 (EC-MDR), evolved line 1",2
same,Relative MIC,"[1]; Escherichia coli NCTC 13846 (EC-MDR), evolved line 2",1
same,Relative MIC,"[1]; Escherichia coli NCTC 13846 (EC-MDR), evolved line 3",1
same,Relative MIC,"[1]; Escherichia coli NCTC 13846 (EC-MDR), evolved line 4",1
same,Relative MIC,"[1]; Escherichia coli NCTC 13846 (EC-MDR), evolved line 5",1
same,Relative MIC,"[1]; Escherichia coli NCTC 13846 (EC-MDR), evolved line 6",2
same,Relative MIC,"[1]; Escherichia coli NCTC 13846 (EC-MDR), evolved line 7",2
same,Relative MIC,"[1]; Escherichia coli NCTC 13846 (EC-MDR), evolved line 8",4
same,Relative MIC,"[1]; Escherichia coli NCTC 13846 (EC-MDR), evolved line 9",1
same,Relative MIC,"[1]; Escherichia coli NCTC 13846 (EC-MDR), evolved line 10",1
same,Relative MIC,"[2]; Acinetobacter baumannii ATCC 17978 (AB-SEN), evolved line 1",256
same,Relative MIC,"[2]; Acinetobacter baumannii ATCC 17978 (AB-SEN), evolved line 2",32
same,Relative MIC,"[2]; Acinetobacter baumannii ATCC 17978 (AB-SEN), evolved line 3",16
same,Relative MIC,"[2]; Acinetobacter baumannii ATCC 17978 (AB-SEN), evolved line 4",2
same,Relative MIC,"[2]; Acinetobacter baumannii ATCC 17978 (AB-SEN), evolved line 6",32
same,Relative MIC,"[2]; Acinetobacter baumannii ATCC 17978 (AB-SEN), evolved line 7",2
same,Relative MIC,"[2]; Acinetobacter baumannii ATCC 17978 (AB-SEN), evolved line 8",2
same,Relative MIC,"[2]; Acinetobacter baumannii ATCC 17978 (AB-SEN), evolved line 9",256
same,Relative MIC,"[2]; Acinetobacter baumannii ATCC 17978 (AB-SEN), evolved line 10",32
same,Relative MIC,"[2]; Acinetobacter baumannii ATCC BAA 1605 (AB-MDR), evolved line 1",2
same,Relative MIC,"[2]; Acinetobacter baumannii ATCC BAA 1605 (AB-MDR), evolved line 2",16
same,Relative MIC,"[2]; Acinetobacter baumannii ATCC BAA 1605 (AB-MDR), evolved line 3",16
same,Relative MIC,"[2]; Acinetobacter baumannii ATCC BAA 1605 (AB-MDR), evolved line 4",16
same,Relative MIC,"[2]; Acinetobacter baumannii ATCC BAA 1605 (AB-MDR), evolved line 5",16
same,Relative MIC,"[2]; Acinetobacter baumannii ATCC BAA 1605 (AB-MDR), evolved line 6",2
same,Relative MIC,"[2]; Acinetobacter baumannii ATCC BAA 1605 (AB-MDR), evolved line 7",16
same,Relative MIC,"[2]; Acinetobacter baumannii ATCC BAA 1605 (AB-MDR), evolved line 8",8
same,Relative MIC,"[2]; Acinetobacter baumannii ATCC BAA 1605 (AB-MDR), evolved line 9",32
same,Relative MIC,"[2]; Acinetobacter baumannii ATCC BAA 1605 (AB-MDR), evolved line 10",16
polymyxin-B,MIC of evolved line,"[1]; EC-MDR NCTC 13846, evolved line 3",64 µg/mL
same,MIC of evolved line,"[1]; EC-MDR NCTC 13846, evolved line 5",64 µg/mL
same,MIC of evolved line,"[1]; EC-MDR NCTC 13846, evolved line 6",64 µg/mL
same,MIC of evolved line,"[1]; EC-MDR NCTC 13846, evolved line 8",32 µg/mL
same,MIC of evolved line,"[1]; EC-MDR NCTC 13846, evolved line 9",64 µg/mL
same,MIC of evolved line,"[1]; EC-MDR NCTC 13846, evolved line 10",64 µg/mL
same,MIC of evolved line,"[1]; EC-SEN (E. coli ATCC 25922), evolved line 1 of the given antibiotic",64 µg/mL
same,MIC of evolved line,"[1]; EC-SEN (E. coli ATCC 25922), evolved line 3 of the given antibiotic",64 µg/mL
same,MIC of evolved line,"[1]; EC-SEN (E. coli ATCC 25922), evolved line 7 of the given antibiotic",64 µg/mL
same,MIC of evolved line,"[1]; EC-SEN (E. coli ATCC 25922), evolved line 9 of the given antibiotic",64 µg/mL
same,MIC of evolved line,"[2]; AB-MDR ATCC BAA 1605, evolved line 1",512 µg/mL
same,MIC of evolved line,"[2]; AB-MDR ATCC BAA 1605, evolved line 2",512 µg/mL
same,MIC of evolved line,"[2]; AB-MDR ATCC BAA 1605, evolved line 3",256 µg/mL
same,MIC of evolved line,"[2]; AB-MDR ATCC BAA 1605, evolved line 4",1020 µg/mL
same,MIC of evolved line,"[2]; AB-MDR ATCC BAA 1605, evolved line 5",1020 µg/mL
same,MIC of evolved line,"[2]; AB-MDR ATCC BAA 1605, evolved line 6",1020 µg/mL
same,MIC of evolved line,"[2]; AB-MDR ATCC BAA 1605, evolved line 7",1020 µg/mL
same,MIC of evolved line,"[2]; AB-MDR ATCC BAA 1605, evolved line 8",1020 µg/mL
same,MIC of evolved line,"[2]; AB-MDR ATCC BAA 1605, evolved line 9",1020 µg/mL
same,MIC of evolved line,"[2]; AB-MDR ATCC BAA 1605, evolved line 10",1020 µg/mL
same,MIC of evolved line,"[2]; AB-SEN (A. baumannii ATCC 17978), evolved line 1 of the given antibiotic",512 µg/mL
same,MIC of evolved line,"[2]; AB-SEN (A. baumannii ATCC 17978), evolved line 2 of the given antibiotic",512 µg/mL
same,MIC of evolved line,"[2]; AB-SEN (A. baumannii ATCC 17978), evolved line 3 of the given antibiotic",256 µg/mL
same,MIC of evolved line,"[2]; AB-SEN (A. baumannii ATCC 17978), evolved line 4 of the given antibiotic",512 µg/mL
same,MIC of evolved line,"[2]; AB-SEN (A. baumannii ATCC 17978), evolved line 5 of the given antibiotic",512 µg/mL
same,MIC of evolved line,"[2]; AB-SEN (A. baumannii ATCC 17978), evolved line 6 of the given antibiotic",512 µg/mL
same,MIC of evolved line,"[2]; AB-SEN (A. baumannii ATCC 17978), evolved line 8 of the given antibiotic",256 µg/mL
same,MIC of evolved line,"[2]; AB-SEN (A. baumannii ATCC 17978), evolved line 9 of the given antibiotic",256 µg/mL
